tested on: T47D; test: Cytotoxicity against human T47D cells at 10 uM after 48 hrs by coulter counter analysis; assay type: functional; conditions: read-out: GI

Row | SMILES | inhibition of growth at 10 µM [%]
1 | O=C(O)c1cccnc1Sc1nc2ccc(Cl)cc2c(=O)n1-c1ccccc1 | 15

tested on: Hs-578T; test: Cytotoxicity against human Hs578T cells at 10 uM after 48 hrs by coulter counter analysis; assay type: functional; conditions: read-out: GI

Row | SMILES | inhibition of growth at 10 µM [%]
2 | O=C(O)c1cccnc1Sc1nc2ccc(Cl)cc2c(=O)n1-c1ccccc1 | < 10

tested on: MCF7; test: Cytotoxicity against human MCF7 cells at 10 uM after 48 hrs by coulter counter analysis; assay type: functional; conditions: MCF7, 48 h, read-out: GI

Row | SMILES | inhibition of growth at 10 µM [%]
3 | O=C(O)c1cccnc1Sc1nc2ccc(Cl)cc2c(=O)n1-c1ccccc1 | < 10

tested on: MDA-MB-231; test: Cytotoxicity against human MDA-MB-231 cells at 10 uM after 48 hrs by coulter counter analysis; assay type: functional; conditions: MDA-MB-231, 48 h, read-out: GI

Row | SMILES | inhibition of growth at 10 µM [%]
4 | O=C(O)c1cccnc1Sc1nc2ccc(Cl)cc2c(=O)n1-c1ccccc1 | 10.4

tested on: PC-3; test: Cytotoxicity against human PC3 cells at 10 uM after 48 hrs by coulter counter analysis; assay type: functional; conditions: PC-3, 48 h, read-out: GI

Row | SMILES | inhibition of growth at 10 µM [%]
5 | O=C(O)c1cccnc1Sc1nc2ccc(Cl)cc2c(=O)n1-c1ccccc1 | < 10

tested on: UO-31; test: Cytotoxicity against human UO31 cells at 10 uM after 48 hrs by coulter counter analysis; assay type: functional; conditions: UO-31, 48 h, read-out: GI

Row | SMILES | inhibition of growth at 10 µM [%]
6 | O=C(O)c1cccnc1Sc1nc2ccc(Cl)cc2c(=O)n1-c1ccccc1 | 20.5

tested on: RXF 393; test: Cytotoxicity against human RXF393 cells at 10 uM after 48 hrs by coulter counter analysis; assay type: functional; conditions: RXF 393, 48 h, read-out: GI

Row | SMILES | inhibition of growth at 10 µM [%]
7 | O=C(O)c1cccnc1Sc1nc2ccc(Cl)cc2c(=O)n1-c1ccccc1 | < 10

tested on: SN12C; test: Cytotoxicity against human SN12C cells at 10 uM after 48 hrs by coulter counter analysis; assay type: functional; conditions: read-out: GI

Row | SMILES | inhibition of growth at 10 µM [%]
8 | O=C(O)c1cccnc1Sc1nc2ccc(Cl)cc2c(=O)n1-c1ccccc1 | < 10

tested on: A498; test: Cytotoxicity against human A498 cells at 10 uM after 48 hrs by coulter counter analysis; assay type: functional; conditions: A498, 48 h, read-out: GI

Row | SMILES | inhibition of growth at 10 µM [%]
9 | O=C(O)c1cccnc1Sc1nc2ccc(Cl)cc2c(=O)n1-c1ccccc1 | < 10

tested on: CAKI-1; test: Cytotoxicity against human Caki1 cells at 10 uM after 48 hrs by coulter counter analysis; assay type: functional; conditions: CAKI-1, 48 h, read-out: GI

Row | SMILES | inhibition of growth at 10 µM [%]
10 | O=C(O)c1cccnc1Sc1nc2ccc(Cl)cc2c(=O)n1-c1ccccc1 | < 10

tested on: not listed separately; test: Cytotoxicity against human NCI-ADR-RES cells at 10 uM after 48 hrs by coulter counter analysis; assay type: functional; conditions: read-out: GI

Row | SMILES | inhibition of growth at 10 µM [%]
11 | O=C(O)c1cccnc1Sc1nc2ccc(Cl)cc2c(=O)n1-c1ccccc1 | < 10

tested on: OVCAR-4; test: Cytotoxicity against human OVCAR4 cells at 10 uM after 48 hrs by coulter counter analysis; assay type: functional; conditions: OVCAR-4, 48 h, read-out: GI

Row | SMILES | inhibition of growth at 10 µM [%]
12 | O=C(O)c1cccnc1Sc1nc2ccc(Cl)cc2c(=O)n1-c1ccccc1 | < 10

tested on: UACC-62; test: Cytotoxicity against human UACC62 cells at 10 uM after 48 hrs by coulter counter analysis; assay type: functional; conditions: UACC-62, 48 h, read-out: GI

Row | SMILES | inhibition of growth at 10 µM [%]
13 | O=C(O)c1cccnc1Sc1nc2ccc(Cl)cc2c(=O)n1-c1ccccc1 | < 10

tested on: IGROV-1; test: Cytotoxicity against human IGROV1 cells at 10 uM after 48 hrs by coulter counter analysis; assay type: functional; conditions: IGROV-1, 48 h, read-out: GI

Row | SMILES | inhibition of growth at 10 µM [%]
14 | O=C(O)c1cccnc1Sc1nc2ccc(Cl)cc2c(=O)n1-c1ccccc1 | < 10

tested on: SK-MEL-5; test: Cytotoxicity against human SK-MEL-5 cells at 10 uM after 48 hrs by coulter counter analysis; assay type: functional; conditions: SK-MEL-5, 48 h, read-out: GI

Row | SMILES | inhibition of growth at 10 µM [%]
15 | O=C(O)c1cccnc1Sc1nc2ccc(Cl)cc2c(=O)n1-c1ccccc1 | < 10

tested on: Malme-3M; test: Cytotoxicity against human MALME-3M cells at 10 uM after 48 hrs by coulter counter analysis; assay type: functional; conditions: read-out: GI

Row | SMILES | inhibition of growth at 10 µM [%]
16 | O=C(O)c1cccnc1Sc1nc2ccc(Cl)cc2c(=O)n1-c1ccccc1 | < 10

tested on: MDA-MB-435; test: Cytotoxicity against human MDA-MB-435 cells at 10 uM after 48 hrs by coulter counter analysis; assay type: functional; conditions: MDA-MB-435, 48 h, read-out: GI

Row | SMILES | inhibition of growth at 10 µM [%]
17 | O=C(O)c1cccnc1Sc1nc2ccc(Cl)cc2c(=O)n1-c1ccccc1 | < 10

tested on: SNB-75; test: Cytotoxicity against human SNB75 cells at 10 uM after 48 hrs by coulter counter analysis; assay type: functional; conditions: SNB-75, 48 h, read-out: GI

Row | SMILES | inhibition of growth at 10 µM [%]
18 | O=C(O)c1cccnc1Sc1nc2ccc(Cl)cc2c(=O)n1-c1ccccc1 | < 10

tested on: LOX IMVI; test: Cytotoxicity against human LOXIMVI cells at 10 uM after 48 hrs by coulter counter analysis; assay type: functional; conditions: read-out: GI

Row | SMILES | inhibition of growth at 10 µM [%]
19 | O=C(O)c1cccnc1Sc1nc2ccc(Cl)cc2c(=O)n1-c1ccccc1 | < 10

tested on: SNB-19; test: Cytotoxicity against human SNB19 cells at 10 uM after 48 hrs by coulter counter analysis; assay type: functional; conditions: SNB-19, 48 h, read-out: GI

Row | SMILES | inhibition of growth at 10 µM [%]
20 | O=C(O)c1cccnc1Sc1nc2ccc(Cl)cc2c(=O)n1-c1ccccc1 | < 10

tested on: NCI-H522; test: Cytotoxicity against human NCI-H522 cells at 10 uM after 48 hrs by coulter counter analysis; assay type: functional; conditions: NCI-H522, 48 h, read-out: GI

Row | SMILES | inhibition of growth at 10 µM [%]
21 | O=C(O)c1cccnc1Sc1nc2ccc(Cl)cc2c(=O)n1-c1ccccc1 | < 10

tested on: SF-295; test: Cytotoxicity against human SF295 cells at 10 uM after 48 hrs by coulter counter analysis; assay type: functional; conditions: SF-295, 48 h, read-out: GI

Row | SMILES | inhibition of growth at 10 µM [%]
22 | O=C(O)c1cccnc1Sc1nc2ccc(Cl)cc2c(=O)n1-c1ccccc1 | < 10

tested on: NCI-H23; test: Cytotoxicity against human NCI-H23 cells at 10 uM after 48 hrs by coulter counter analysis; assay type: functional; conditions: NCI-H23, 48 h, read-out: GI

Row | SMILES | inhibition of growth at 10 µM [%]
23 | O=C(O)c1cccnc1Sc1nc2ccc(Cl)cc2c(=O)n1-c1ccccc1 | < 10

tested on: not listed separately; test: Cytotoxicity against human EKVX cells at 10 uM after 48 hrs by coulter counter analysis; assay type: functional; conditions: read-out: GI

Row | SMILES | inhibition of growth at 10 µM [%]
24 | O=C(O)c1cccnc1Sc1nc2ccc(Cl)cc2c(=O)n1-c1ccccc1 | < 10

tested on: NCI-H226; test: Cytotoxicity against human NCI-H226 cells at 10 uM after 48 hrs by coulter counter analysis; assay type: functional; conditions: NCI-H226, 48 h, read-out: GI

Row | SMILES | inhibition of growth at 10 µM [%]
25 | O=C(O)c1cccnc1Sc1nc2ccc(Cl)cc2c(=O)n1-c1ccccc1 | 15.1

tested on: A549; test: Cytotoxicity against human A549/ATCC cells at 10 uM after 48 hrs by coulter counter analysis; assay type: functional; conditions: A549, 48 h, read-out: GI

Row | SMILES | inhibition of growth at 10 µM [%]
26 | O=C(O)c1cccnc1Sc1nc2ccc(Cl)cc2c(=O)n1-c1ccccc1 | < 10

tested on: RPMI-8226; test: Cytotoxicity against human RPMI8226 cells at 10 uM after 48 hrs by coulter counter analysis; assay type: functional; conditions: RPMI-8226, 48 h, read-out: GI

Row | SMILES | inhibition of growth at 10 µM [%]
27 | O=C(O)c1cccnc1Sc1nc2ccc(Cl)cc2c(=O)n1-c1ccccc1 | < 10

tested on: SR; test: Cytotoxicity against human SR cells at 10 uM after 48 hrs by coulter counter analysis; assay type: functional; conditions: read-out: GI

Row | SMILES | inhibition of growth at 10 µM [%]
28 | O=C(O)c1cccnc1Sc1nc2ccc(Cl)cc2c(=O)n1-c1ccccc1 | < 10

tested on: MOLT-4; test: Cytotoxicity against human MOLT4 cells at 10 uM after 48 hrs by coulter counter analysis; assay type: functional; conditions: MOLT-4, 48 h, read-out: GI

Row | SMILES | inhibition of growth at 10 µM [%]
29 | O=C(O)c1cccnc1Sc1nc2ccc(Cl)cc2c(=O)n1-c1ccccc1 | < 10

tested on: CCRF-CEM; test: Cytotoxicity against human CCRF-CEM cells at 10 uM after 48 hrs by coulter counter analysis; assay type: functional; conditions: read-out: GI

Row | SMILES | inhibition of growth at 10 µM [%]
30 | O=C(O)c1cccnc1Sc1nc2ccc(Cl)cc2c(=O)n1-c1ccccc1 | < 10

tested on: HL-60(TB); test: Cytotoxicity against human HL-60(TB) cells at 10 uM after 48 hrs by coulter counter analysis; assay type: functional; conditions: HL-60, 48 h, read-out: GI

Row | SMILES | inhibition of growth at 10 µM [%]
31 | O=C(O)c1cccnc1Sc1nc2ccc(Cl)cc2c(=O)n1-c1ccccc1 | < 10

tested on: Pseudomonas aeruginosa; test: Antimicrobial activity against Pseudomonas aeruginosa at 200 ug after 24 hrs by agar disc diffusion method; assay type: functional; conditions: read-out: DIZ

Row | SMILES | zone of inhibition at 200 µg/disc [mm]
32 | O=C(O)c1cccnc1Sc1nc2ccc(Cl)cc2c(=O)n1-c1ccccc1 | 8

tested on: Escherichia coli; test: Antimicrobial activity against Escherichia coli at 200 ug after 24 hrs by agar disc diffusion method; assay type: functional; conditions: read-out: DIZ

Row | SMILES | zone of inhibition at 200 µg/disc [mm]
33 | O=C(O)c1cccnc1Sc1nc2ccc(Cl)cc2c(=O)n1-c1ccccc1 | 8

tested on: Micrococcus luteus; test: Antimicrobial activity against Micrococcus luteus at 200 ug after 24 hrs by agar disc diffusion method; assay type: functional; conditions: read-out: DIZ

Row | SMILES | zone of inhibition at 200 µg/disc [mm]
34 | O=C(O)c1cccnc1Sc1nc2ccc(Cl)cc2c(=O)n1-c1ccccc1 | 8

tested on: Bacillus subtilis; test: Antimicrobial activity against Bacillus subtilis at 200 ug after 24 hrs by agar disc diffusion method; assay type: functional; conditions: read-out: DIZ

Row | SMILES | zone of inhibition at 200 µg/disc [mm]
35 | O=C(O)c1cccnc1Sc1nc2ccc(Cl)cc2c(=O)n1-c1ccccc1 | 16

target: T1, Dihydrofolate reductase (Bos taurus, UniProt P00376); test: Inhibition of bovine DHFR after 2 mins by spectrophotometry; conditions: not given
T1 sequence (P00376 whole entry): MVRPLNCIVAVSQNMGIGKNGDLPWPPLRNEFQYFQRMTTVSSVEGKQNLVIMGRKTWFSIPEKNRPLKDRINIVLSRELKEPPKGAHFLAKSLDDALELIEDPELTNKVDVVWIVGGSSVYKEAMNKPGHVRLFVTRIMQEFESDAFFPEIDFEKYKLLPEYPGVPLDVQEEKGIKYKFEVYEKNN

Row | SMILES | IC50 [µM]
36 | O=C(O)c1cccnc1Sc1nc2ccc(Cl)cc2c(=O)n1-c1ccccc1 | 8

tested on: Staphylococcus aureus; test: Antimicrobial activity against Staphylococcus aureus at 200 ug after 24 hrs by agar disc diffusion method; assay type: functional; conditions: read-out: DIZ

Row | SMILES | zone of inhibition at 200 µg/disc [mm]
37 | O=C(O)c1cccnc1Sc1nc2ccc(Cl)cc2c(=O)n1-c1ccccc1 | 15

Reference: ChEMBL document CHEMBL2375290, “Nonclassical antifolates, part 3: synthesis, biological evaluation and molecular modeling study of some new 2-heteroarylthio-quinazolin-4-ones” (Eur J Med Chem, 2013)
